The text below walks through data of patent EP2818471A1, “Nitrogen bicyclic compounds as inhibitors for Scyl1 and Grk5” (Max-Planck-Gesellschaft zur Förderung der Wissenschaften …, priority 2013, dated 2014).

For the assay, the system named is beta-TC6 cells. Put plainly: Insulin HTRF assay, relative activity Ar normalized to sunitinib. The class given is cell-based. The following applies: Mus musculus, normalized to positive control sunitinib (5 µM = 100%), Table 10. The essentials: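 Relative activity Ar was scaled between 0% and 100% controls, with sunitinib at 5 µM f.c. as reference. Insulin released by beta-TC6 cells was quantified by sandwich HTRF (Eu-cryptate/XL665 antibodies, 120 min RT). Cells had been seeded 24 or 48 h, then treated 2–4 h at 37°C in induction buffer, 0.5% DMSO.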
In the case of `c1csc(-c2cn3c(-c4ccc5c(c4)OCO5)cnc3cn2)c1` [compound 306, 3-(1,3-benzodioxol-5-yl)-6-(2-thienyl)imidazo[1,2-a]pyrazine], the Emax (in general, the size of the effect at its maximum, as opposed to the concentration needed) was in the range of 50 to 100%.

Turning to `Clc1ccc(-c2cnc3cnc(-c4ccncc4)cn23)cc1` [compound 347, 3-(4-chlorophenyl)-6-(4-pyridyl)imidazo[1,2-a]pyrazine], the Emax is 20 to 50%.

In turn, `COc1cc(OC)cc(-c2cn3c(-c4cccc(N(C)C)c4)cnc3cn2)c1` [compound 346, 3-[6-(3,5-dimethoxyphenyl)imidazo[1,2-a]pyrazin-3-yl]-N,N-dimethyl-aniline] gave an Emax of 20 to 50%.

With `O=C(NCCO)c1ccc(-c2cnc3cccnn23)cc1` [compound 78, N-(2-hydroxyethyl)-4-imidazo[1,2-b]pyridazin-3-yl-benzamide], the Emax is 10 to 20%.

`CN(C)C(=O)c1cccc(-c2cn3c(-c4ccc(N(C)C)cc4)cnc3cn2)c1` [compound 293, 3-[3-(4-dimethylaminophenyl)imidazo[1,2-a]pyrazin-6-yl]-N,N-dimethyl-benzamide]: the maximal response (Emax) fell in the range of 20 to 50%.

In the case of `CS(=O)(=O)Nc1cccc(-c2cn3c(-c4ccc5ncccc5c4)cnc3cn2)c1` [compound 444, N-[3-[3-(6-quinolyl)imidazo[1,2-a]pyrazin-6-yl]phenyl]methanesulfonamide], the Emax is 20 to 50%.

`c1ccc(-c2cnc3cnc(-c4ccsc4)cn23)cc1` [compound 296, 3-phenyl-6-(3-thienyl)imidazo[1,2-a]pyrazine] came in with a maximal effect (Emax) of 20 to 50%.

Take `Oc1cccc(-c2cnc3cnc(-c4cccs4)cn23)c1` [compound 370, 3-[6-(2-thienyl)imidazo[1,2-a]pyrazin-3-yl]phenol]: the Emax is 20 to 50%.

The molecule `Clc1cccc(-c2nnc3ccc(-c4cncc5ccccc45)cn23)c1` [compound 205, 4-[3-(3-chlorophenyl)-[1,2,4]triazolo[4,3-a]pyridin-6-yl]isoquinoline] displayed a maximum response (Emax) of 50 to 100%.

`CN(C)CCCOc1ccc(-c2nnc3ccc(-c4ccc(Cl)cc4)cn23)cc1` [compound 237, 3-[4-[6-(4-chlorophenyl)-[1,2,4]triazolo[4,3-a]pyridin-3-yl]phenoxy]-N,N-dimethyl-propan-1-amine] came in with an Emax of 20 to 50%.

In the case of `CN(C)CCCNC(=O)c1ccc(-c2ccc3nnc(-c4cccc(C(F)(F)F)c4)n3c2)cc1` [compound 211, N-[3-(dimethylamino)propyl]-4-[3-[3-(trifluoromethyl)phenyl]-[1,2,4]triazolo[4,3-a]pyridin-6-yl]benzamide], the maximal response (Emax) was in the range of 20 to 50%.

As for `c1cc2c(cc1CNc1ccc3ncc(-c4ccc(N5CCOCC5)cc4)n3n1)OCO2` [compound 26, N-(1,3-benzodioxol-5-ylmethyl)-3-(4-morpholinophenyl)imidazo[1,2-b]pyridazin-6-amine], the Emax was in the range of 20 to 50%.

Regarding `CN(C)C(=O)c1ccc(-c2ccc3nnc(-c4cccc(C(F)(F)F)c4)n3c2)cc1` [compound 213, N,N-dimethyl-4-[3-[3-(trifluoromethyl)phenyl]-[1,2,4]triazolo[4,3-a]pyridin-6-yl]benzamide], the Emax lay in the range of 20 to 50%.

In turn, `c1cncc(-c2cnc3cnc(-c4cc5ccccc5s4)cn23)c1` [compound 316, 6-(benzothiophen-2-yl)-3-(3-pyridyl)imidazo[1,2-a]pyrazine] returned an Emax of 20 to 50%.

On to `c1ccc(-c2ccc3ncc(-c4ccc5c(c4)OCO5)n3n2)cc1` [compound 101, 3-(1,3-benzodioxol-5-yl)-6-phenyl-imidazo[1,2-b]pyridazine], for which the Emax was 20 to 50%.

Consider `Cn1cc(-c2cn3c(-c4ccc(O)cc4)cnc3cn2)cn1` [compound 327, 4-[6-(1-methylpyrazol-4-yl)imidazo[1,2-a]pyrazin-3-yl]phenol], for which the Emax lay in the range of 20 to 50%.

For the molecule `c1ccc(Oc2cccc(-c3ccc4nnc(-c5ccncc5)n4c3)c2)cc1` [compound 181, 6-(3-phenoxyphenyl)-3-(4-pyridyl)-[1,2,4]triazolo[4,3-a]pyridine], the Emax fell in the range of 20 to 50%.

`CN(C)c1cccc(-c2cnc3cnc(-c4ccncc4)cn23)c1` [compound 342, N,N-dimethyl-3-[6-(4-pyridyl)imidazo[1,2-a]pyrazin-3-yl]aniline]: the Emax fell in the range of 20 to 50%.

On to `COc1cc(OC)cc(-c2cnc3cnc(-c4cccc(OC(C)C)c4)cn23)c1` [compound 437, 3-(3,5-dimethoxyphenyl)-6-(3-isopropoxyphenyl)imidazo[1,2-a]pyrazine], for which the Emax lay in the range of 20 to 50%.

In turn, `c1nc(-c2nnc3ccc(-c4ccc(N5CCOCC5)cc4)cn23)cs1` [compound 226, 4-[4-(3-thiazol-4-yl-[1,2,4]triazolo[4,3-a]pyridin-6-yl)phenyl]morpholine] showed a maximum response (Emax) of 50 to 100%.

With `COc1cccc(CC(=O)Nc2cnc3cnc(-c4cccs4)cn23)c1` [compound 260, 2-(3-methoxyphenyl)-N-[6-(2-thienyl)imidazo[1,2-a]pyrazin-3-yl]acetamide], the maximum response (Emax) fell in the range of 20 to 50%.

Molecule `Oc1cccc(-c2nnc3ccc(-c4ccc(F)cc4)cn23)c1` [compound 208, 3-[6-(4-fluorophenyl)-[1,2,4]triazolo[4,3-a]pyridin-3-yl]phenol] yielded an Emax of 50 to 100%.

Molecule `CS(=O)(=O)c1cccc(-c2ccc3nnc(-c4cccc(OC(F)(F)F)c4)n3c2)c1` [compound 193, 6-(3-methylsulfonylphenyl)-3-[3-(trifluoromethoxy)phenyl]-[1,2,4]triazolo[4,3-a]pyridine] returned an Emax of 50 to 100%.

Molecule `COc1ccccc1-c1ccc2ncc(-c3cccc(OC(F)(F)F)c3)n2n1` [compound 115, 6-(2-methoxyphenyl)-3-[3-(trifluoromethoxy)phenyl]imidazo[1,2-b]pyridazine] displayed an Emax of 10 to 20%.

`CSc1ccc(-c2cn3c(-c4cccnc4)cnc3cn2)cc1` [compound 317, 6-(4-methylsulfanylphenyl)-3-(3-pyridyl)imidazo[1,2-a]pyrazine] gave an Emax of 20 to 50%.

In turn, `CN(C)C(=O)c1cccc(-c2ccc3nnc(-c4ccc5nccnc5c4)n3c2)c1` [compound 246, N,N-dimethyl-3-(3-quinoxalin-6-yl-[1,2,4]triazolo[4,3-a]pyridin-6-yl)benzamide] had a maximal response (Emax) of 50 to 100%.

For `Cc1ccccc1-c1nnc2ccc(-c3ccc(C(N)=O)cc3)cn12` [compound 225, 4-[3-(o-tolyl)-[1,2,4]triazolo[4,3-a]pyridin-6-yl]benzamide], the Emax was 20 to 50%.

In turn, `Fc1cccc(-c2cnc3cnc(-c4ccc(N5CCNCC5)cc4)cn23)c1` [compound 387, 3-(3-fluorophenyl)-6-(4-piperazin-1-ylphenyl)imidazo[1,2-a]pyrazine] yielded an Emax of 10 to 20%.

As to `c1cnn2c(-c3ccc4c(c3)CCO4)cnc2c1` [compound 80, 3-(2,3-dihydrobenzofuran-5-yl)imidazo[1,2-b]pyridazine], the Emax fell in the range of 10 to 20%.

Molecule `O=C(Nc1cnc2cnc(-c3cnn(Cc4ccccc4)c3)cn12)C1CCC1` [compound 273, N-[6-(1-benzylpyrazol-4-yl)imidazo[1,2-a]pyrazin-3-yl]cyclobutanecarboxamide] displayed an Emax of 20 to 50%.

`CN1CCN(C(=O)c2cccc(-c3cnc4cnc(-c5ccc(CNc6ccccc6)cc5)cn34)c2)CC1` [compound 359, [3-[6-[4-(anilinomethyl)phenyl]imidazo[1,2-a]pyrazin-3-yl]phenyl]-(4-methylpiperazin-1-yl)methanone] yielded a maximal effect (Emax) of 10 to 20%.

The molecule `COc1cc(-c2ccc3ncc(-c4ccc(F)c(Cl)c4)n3n2)cc(OC)c1OC` [compound 114, 3-(3-chloro-4-fluoro-phenyl)-6-(3,4,5-trimethoxyphenyl)imidazo[1,2-b]pyridazine] yielded an Emax of 10 to 20%.

As to `O=C(NCCO)c1cccc(-c2cn3c(-c4cccc(OC(F)(F)F)c4)cnc3cn2)c1` [compound 353, N-(2-hydroxyethyl)-3-[3-[3-(trifluoromethoxy)phenyl]imidazo[1,2-a]pyrazin-6-yl]benzamide], the Emax is 20 to 50%.

`O=C(O)CCc1ccc(-c2cnc3cnc(-c4cccc(Cl)c4)cn23)cc1` [compound 329, 3-[4-[6-(3-chlorophenyl)imidazo[1,2-a]pyrazin-3-yl]phenyl]propanoic acid]: the maximum response (Emax) lay within 20 to 50%.

As for `Brc1cnc2ccc(NCCCN3CCOCC3)nn12` [compound 44, 3-bromo-N-(3-morpholinopropyl)imidazo[1,2-b]pyridazin-6-amine], the Emax was 10 to 20%.

For the molecule `CCCC/C=C/c1cn2c(NC(=O)Cc3cccc(OC)c3)cnc2cn1` [compound 253, N-[6-[(E)-hex-1-enyl]imidazo[1,2-a]pyrazin-3-yl]-2-(3-methoxyphenyl)acetamide], the Emax lay within 10 to 20%.

`CC(C(=O)Nc1cnc2cnc(-c3ccc4c(c3)OCO4)cn12)c1ccccc1` (stereo not drawn) [compound 270, N-[6-(1,3-benzodioxol-5-yl)imidazo[1,2-a]pyrazin-3-yl]-2-phenyl-propanamide] registered a maximum response (Emax) of 20 to 50%.

As to `Cn1ccc2cc(-c3cnc4cnc(-c5cccc(C(N)=O)c5)cn34)ccc21` [compound 401, 3-[3-(1-methylindol-5-yl)imidazo[1,2-a]pyrazin-6-yl]benzamide], the Emax was in the range of 20 to 50%.

Molecule `Cc1cccc(-c2cnc3cccnn23)c1` [compound 84, 3-(m-tolyl)imidazo[1,2-b]pyridazine] came in with an Emax of 10 to 20%.

In the case of `CC(C)[C@@H](CO)Nc1ccc2ncc(-c3ccc(N)cc3)n2n1` [compound 5, (2S)-2-[[3-(4-aminophenyl)imidazo[1,2-b]pyridazin-6-yl]amino]-3-methyl-butan-1-ol], the Emax lay in the range of 50 to 100%.

Consider `C(#Cc1ccccn1)c1ccc2nnc(-c3ccccc3)n2c1` [compound 167, 3-phenyl-6-[2-(2-pyridyl)ethynyl]-[1,2,4]triazolo[4,3-a]pyridine], for which the Emax lay in the range of 50 to 100%.

Molecule `Fc1cccc(-c2cnc3cnc(-c4cccs4)cn23)c1` [compound 390, 3-(3-fluorophenyl)-6-(2-thienyl)imidazo[1,2-a]pyrazine] gave an Emax of 20 to 50%.
